Measurements: patent US20030077576A1, “Use of monoclonal antibodies and functional assays for prediction of risk of opportunistic infection” (priority 2001, published 2003)

Columns and labels:
Format in all cases: cell-based, human
monocyte VLA-5 (CD49e) = conditions: for log fluorescence intensity for VLA-5 (CD49e stained with mAb SAM-1) in the CD14+ (monocyte) population, FN120: 2 μM FN120 for 2 h in the presence of the protease inhibitor; for log fluorescence intensity for VLA-5 (CD49e stained with mAb SAM-1) in the CD14+ (monocyte) population, FN120 / log fluorescence intensity for VLA-5 (CD49e stained with mAb SAM-1) in the CD14+ (monocyte) population, No Rx: 0.2 mM PMSF, 2 mM CdCl2, 40 μM bestatin, 10 μM 1,10 phenanthroline, 0.1 mM EGTA, mean ± SEM, three donors; for log fluorescence intensity for VLA-5 (CD49e stained with mAb SAM-1) in the CD14+ (monocyte) population, No Rx: protease inhibitor alone, no FN120, 2 h
Procedure: Briefly, heparinized blood was distributed in 0.1-ml aliquots into polypropylene tubes for incubation with saturating concentrations of primary or secondary antibodies at 4° C. for 30 min. Incubations were separated by two washes with ice-cold Dulbecco's PBS (Gibco Laboratories, Grand Island, N.Y.). FITC-conjugated sheep anti-mouse Ig was used at a dilution of 1:120. PE-conjugated anti-CD14 (clone 116, Beckman Coulter), added after the secondary antibody, was used according to the manufacturer's directions. After leukocytes were stained and washed, red cells were lysed with FACS Lysing Solution (Becton Dickinson). Leukocytes were washed again, fixed in 1% paraformaldehyde, and analyzed by flow cytometry the day of the experiment. […] Total white blood cell (Coulter Counter, Coulter Electronics, Hialeah, Fla.) and differential counts were measured in aliquots of the same blood samples used for immunofluorescence studies. Tests of control blood donors were randomly interspersed among patient samples.
Flow cytometry was performed on an Epics Profile 1 with three fluorescence channels (Coulter Cytometry, Hialeah, Fla.) that has an argon laser tuned to 488 nm. Daily alignment and calibration of the instrument was performed with DNA-check and Standard-Brite fluorescent beads (Coulter). Green (FL1), orange (FL2), and red (FL3) fluorescence signals are measured on a four-decade logarithmic scale. Linearity of log fluorescence intensity was checked with Immuno-Brite fluorescent beads. Appropriate compensations for spectral overlap between the three channels is carried out prior to calculating data. The mean intensity of fluorescence, measured on a 4 decade logarithmic scale, was converted to a linear scale, using a 256 channel histogram, to give a mean channel number, also known as the mean channel fluorescence (MCF). This was used to estimate the average fluorescence emission of cells reactive with specific monoclonal antibodies. Cell surface display of specific mAbs were precisely delineated when necessary by means of quantitative flow cytometry, using the Quantum Simply Cellular Microbeads Kit from Sigma BioSciences, St. Louis, Mo. This kit contained four bead populations that bind graduated quantities of antibodies per bead. […] By interpolation, this standard curve was used to accurately estimate the quantity of antibody bound to other cellular targets. Leukocytes were initially selected for fluorescence analysis by a combination of right-angle and low angle forward light scatter. Two color fluorescence, with PE conjugated anti-CD14 as a qualifier was used specifically to identify monocytes, and anti-CD3 to identify T lymphocytes. Other lymphoid elements were identified, as required, by using appropriate direct antibody conjugates. At least 2500 monocytes were counted in each sample. Fluorescence measurements from isotype controls were subtracted from data obtained with all reported antibodies.
To determine how fragments of fibronectin might affect VLA-5 expression, the effect of adding purified 120 kD and 40 kD fragments of fibronectin to heparin-anticoagulated whole blood from normal donors was measured. The 120 kD fragment has an RGD motif and binds to VLA-5 on cells.

U937 monocytoid cells = experiment: FN120 treatment of U937 monocytoid cells: proteinase-3 expression and VLA-5 shedding; conditions: U937 cells treated with FN120
From the text: To further investigate how FN120 causes VLA-5 shedding, U937 monocytoid cells were studied. These display greater quantities of VLA-5 than blood monocytes. They also display the serine protease, proteinase-3, when activated (Rao et al., 1996). U937 cells were washed repeatedly, to remove exogenous fibronectin and serum proteases, and resuspended in serum-free medium for treatment with FN120. […] Treating the cells with polyclonal anti-proteinase-3 or serine proteinase inhibitors such as alpha-antitrypsin blocked proteinase-3 activity. Blocking proteinase-3 activity with either agent prevented hydrolysis and release of VLA-5 molecules that are otherwise shed when U937 cells are incubated with FN120 as shown in FIG. 11.

CD14+ monocytes = experiment: Monocyte migration into collagenous matrices with or without native fibronectin; conditions: 4 hrs at 37° C., pads impregnated with full-length 220 kD native fibronectin
Procedure: Briefly, monocytes were incubated with collagenous matrices, half of which had been impregnated with full-length 220 kD native fibronectin. After 4 hrs contact at 37° C., unbound MNLs were washed away. The pads were dissolved with collagenase to recover and count the cells that had migrated into the matrix (Birdsall et al., 1997).

Row | Compound | log fluorescence intensity for VLA-5 (CD49e stained with mAb SAM-1) in the CD14+ (monocyte) population, FN120 (monocyte VLA-5 (CD49e)) | log fluorescence intensity for VLA-5 (CD49e stained with mAb SAM-1) in the CD14+ (monocyte) population, No Rx (monocyte VLA-5 (CD49e)) | other results
1 | c1cnc2c(c1)ccc1cccnc12 [1,10 phenanthroline] | 3.1 ± 0.6 | 4.9 ± 0.6 | 
2 | O=CC[C@@H](O)[C@H](O)[C@H](O)CO [2-deoxyglucose] |  |  | loss of VLA-5 with 120 kD fibronectin fragments when cellular metabolism is inhibited (monocyte VLA-5 (CD49e); 2-deoxyglucose and sodium azide together, with 120 kD fibronectin fragments): failed to occur
3 | [Cl][Cd][Cl] [CdCl2] | 2.2 ± 0.3 | 4.7 ± 0.5 | 
4 | O=C(O)CN(CCOCCOCCN(CC(=O)O)CC(=O)O)CC(=O)O [EGTA] | 2.8 ± 0.6 | 5.1 ± 0.3 | 
5 | O=S(=O)(F)Cc1ccccc1 [PMSF, phenylmethylsulfonylfluoride] | 5.8 ± 0.7 | 5.4 ± 0.5 | 
6 | CC(C)C[C@H](NC(=O)[C@@H](O)[C@H](N)Cc1ccccc1)C(=O)O [bestatin] | 2.4 ± 0.5 | 4.9 ± 0.3 | 
7 | alpha-antitrypsin: serine proteinase inhibitor |  |  | proteinase-3 activity (U937 monocytoid cells): blocked
8 | fibronectin |  |  | CD14+ monocytes accumulated in fibronectin-containing pads versus plain collagen pads (CD14+ monocytes): three times as many
